Data reported in ChEMBL document CHEMBL2321779, “Aminophenoxazinones as inhibitors of indoleamine 2,3-dioxygenase (IDO). Synthesis of exfoliazone and chandrananimycin A” (J Med Chem, 2013).

How the values were obtained:
[1] = target: T1, Indoleamine 2,3-dioxygenase 1 (Homo sapiens, UniProt P14902); test: Inhibition of human recombinant N-terminus 6X-histidine-tagged indoleamine 2,3-dioxygenase expressed in Escherichia coli assessed as inhibition of L-tryptophan to N-formylkynurenine formation measured as residual enzyme activity at 0.1 uM incubated for 10 mins prior to substrate addition measured …
Target sequence in this assay (P14902 whole entry, looked up): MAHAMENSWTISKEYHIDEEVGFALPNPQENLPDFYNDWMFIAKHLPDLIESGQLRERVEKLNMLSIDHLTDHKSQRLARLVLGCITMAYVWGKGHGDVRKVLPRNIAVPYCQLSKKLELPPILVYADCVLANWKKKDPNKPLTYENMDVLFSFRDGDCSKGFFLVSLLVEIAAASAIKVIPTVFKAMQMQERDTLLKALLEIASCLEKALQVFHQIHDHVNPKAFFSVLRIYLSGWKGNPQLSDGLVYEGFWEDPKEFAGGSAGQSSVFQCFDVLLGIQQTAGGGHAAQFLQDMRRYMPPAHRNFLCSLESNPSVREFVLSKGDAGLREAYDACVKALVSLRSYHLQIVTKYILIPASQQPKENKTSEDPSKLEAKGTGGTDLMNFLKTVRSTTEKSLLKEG

[2] = target: T1, Indoleamine 2,3-dioxygenase 1; test: Inhibition of human recombinant N-terminus 6X-histidine-tagged indoleamine 2,3-dioxygenase expressed in Escherichia coli assessed as inhibition of L-tryptophan to N-formylkynurenine formation measured as residual enzyme activity at 10 uM incubated for 10 mins prior to substrate addition measured …; values are per cent of control
Target sequence in this assay (P14902 whole entry, looked up): as above

[3] = target: T1, Indoleamine 2,3-dioxygenase 1; test: Inhibition of human recombinant N-terminus 6X-histidine-tagged indoleamine 2,3-dioxygenase expressed in Escherichia coli assessed as inhibition of L-tryptophan to N-formylkynurenine formation measured as residual enzyme activity at 1 uM incubated for 10 mins prior to substrate addition measured …; values are per cent of control
Target sequence in this assay (P14902 whole entry, looked up): as above

[4] = target: T1, Indoleamine 2,3-dioxygenase 1; test: Inhibition of human recombinant N-terminus 6X-histidine-tagged indoleamine 2,3-dioxygenase expressed in Escherichia coli assessed as inhibition of L-tryptophan to N-formylkynurenine formation measured as residual enzyme activity incubated for 10 mins prior to substrate addition measured after 30 mins by UV-vis spectrophotometric analysis relative to DMSO-treated control
Target sequence in this assay (P14902 whole entry): as the sequence (P14902 whole entry, looked up) above

Row | residual activity [1] [%] | residual activity [2] [%] | residual activity [3] [%] | IC50 [4] [nM] | Ki [4] [nM] | Compound
1 | 84 | 80 | 87 | – | – | Nc1cc2nc3cc(CO)ccc3oc-2cc1=O
2 | 82 | 74 | 94 | – | – | Nc1cc2nc3ccccc3oc-2cc1=O
3 | 85 | 74 | 82 | – | – | CC(=O)Nc1cc2nc3cc(CO)ccc3oc-2cc1=O
4 | 99 | 91 | 100 | – | – | Cc1ccc2oc3cc(=O)c(N)cc-3nc2c1
5 | 100 | 97 | 100 | – | – | Nc1cc2nc3c(O)cccc3oc-2cc1=O

Second part, the compound before the results:

Row | Compound | residual activity [1] [%] | residual activity [2] [%] | residual activity [3] [%] | IC50 [4] [nM] | Ki [4] [nM]
6 | Cc1c2nc3c(C)cccc3oc-2cc(=O)c1N | 98 | 95 | 100 | – | –
7 | COC(=O)c1c2nc3c(C(=O)OC)ccc(C)c3oc-2c(C)c(=O)c1N | 66 | 24 | 29 | – | –
8 | CC(=O)Nc1cc2nc3c(O)cccc3oc-2cc1=O | 100 | 92 | 99 | – | –
9 | Nc1c(C(=O)O)c2nc3c(C(=O)O)cccc3oc-2cc1=O [CINNABARINIC ACID] | 71 | 11 | 23 | 460 | 326
10 | COC(=O)c1c2nc3cc(CO)ccc3oc-2cc(=O)c1N | 95 | 34 | 75 | – | –
11 | COC(=O)c1c2nc3c(C(=O)OC)cccc3oc-2cc(=O)c1N | 94 | 30 | 60 | – | –
